# Patent US20230085307A1, “PYRIDAZINONE COMPOUND AND HERBICIDE” (NISSAN CHEMICAL CORPORATION, priority 2019, published 2023)
# Assays:
# [1] = tested on: velvetleaf; assay: Test Example 4: herbicidal effect by soil treatment (Table 19, symbol M); type: in vivo, velvetleaf (Abutilon theophrasti); conditions: AAH 320 g/ha
# In short: (§1)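 Three weeks of greenhouse growth at 25° C. to 30° C. followed a uniform surface spray of water-diluted emulsion at a predetermined herbicide amount. Seeds had been sown beforehand under about 1.5 cm of sterilized diluvial soil. Grading followed criteria set out in an earlier test.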
# [2] = tested on: southern crabgrass; assay: Test Example 4: herbicidal effect by soil treatment (Table 19, symbol F); type: in vivo, southern crabgrass (Digitaria ciliaris); conditions: AAH 320 g/ha
# In short: as §1
# [3] = tested on: false cleavers; assay: Test Example 4: herbicidal effect by soil treatment (Table 19, symbol Q); type: in vivo, false cleavers (Galium spurium); conditions: AAH 320 g/ha
# In short: as §1
# [4] = tested on: blackgrass; assay: Test Example 4: herbicidal effect by soil treatment (Table 19, symbol J); type: in vivo, blackgrass (Alopecurus myosuroides); conditions: AAH 320 g/ha
# In short: as §1
# [5] = tested on: wild oat; assay: Test Example 4: herbicidal effect by soil treatment (Table 19, symbol I); type: in vivo, wild oat (Avena fatua); conditions: AAH 320 g/ha
# In short: as §1
# [6] = tested on: persian speedwell; assay: Test Example 5: herbicidal effect by foliage application, plastic box (Table 20, symbol R); type: in vivo, Persian speedwell (Veronica persica); conditions: foliage application, 320 g/ha, 3 weeks after application
# In short: (§2)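 Plants sown in sterilized diluvial soil and grown 14 days in a greenhouse at 25° C to 30° C, then sprayed on the foliage with the compound's emulsion diluted in water to a predetermined herbicide amount. Injury to weeds and crops scored three weeks after application on a visual rating scale.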
# [7] = tested on: wild oat; assay: Test Example 5: herbicidal effect by foliage application, plastic box (Table 20, symbol I); type: in vivo, wild oat (Avena fatua); conditions: foliage application, 320 g/ha, 3 weeks after application
# In short: as §2
# [8] = tested on: Chinese sprangletop; assay: Test Example 3: herbicidal effect by foliage application, Wagner pot (Table 18, symbol D); type: in vivo, chinese sprangletop (Leptochloa chinensis); conditions: 320 g/ha
# In short: (§3)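 Plants were sown in alluvial soil held under 0.1–0.5 cm standing water and grown 14 days in a greenhouse at 25–30 °C. An emulsifiable formulation, water-diluted to the set dose, was then sprayed onto the foliage, and effects were scored three weeks later using previously defined criteria.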
# [9] = tested on: southern crabgrass; assay: Test Example 5: herbicidal effect by foliage application, plastic box (Table 20, symbol F); type: in vivo, southern crabgrass (Digitaria ciliaris); conditions: foliage application, 320 g/ha, 3 weeks after application
# In short: as §2
# [10] = tested on: green foxtail; assay: Test Example 5: herbicidal effect by foliage application, plastic box (Table 20, symbol G); type: in vivo, green foxtail (Setaria viridis); conditions: foliage application, 320 g/ha, 3 weeks after application
# In short: as §2
# [11] = tested on: Italian ryegrass; assay: Test Example 5: herbicidal effect by foliage application, plastic box (Table 20, symbol K); type: in vivo, Italian ryegrass (Lolium multiflorum); conditions: foliage application, 320 g/ha, 3 weeks after application
# In short: as §2
# [12] = tested on: windgrass; assay: Test Example 5: herbicidal effect by foliage application, plastic box (Table 20, symbol L); type: in vivo, windgrass (Apera spica-venti); conditions: foliage application, 320 g/ha, 3 weeks after application
# In short: as §2
# [13] = tested on: velvetleaf; assay: Test Example 5: herbicidal effect by foliage application, plastic box (Table 20, symbol M); type: in vivo, velvetleaf (Abutilon theophrasti); conditions: foliage application, 320 g/ha, 3 weeks after application
# In short: as §2
# [14] = tested on: windgrass; assay: Test Example 4: herbicidal effect by soil treatment (Table 19, symbol L); type: in vivo, windgrass (Apera spica-venti); conditions: AAH 320 g/ha
# In short: as §1
# [15] = tested on: chickweed; assay: Test Example 4: herbicidal effect by soil treatment (Table 19, symbol P); type: in vivo, common chickweed (Stellaria media); conditions: AAH 320 g/ha
# In short: as §1
# [16] = tested on: persian speedwell; assay: Test Example 4: herbicidal effect by soil treatment (Table 19, symbol R); type: in vivo, Persian speedwell (Veronica persica); conditions: AAH 320 g/ha
# In short: as §1
# [17] = tested on: blackgrass; assay: Test Example 5: herbicidal effect by foliage application, plastic box (Table 20, symbol J); type: in vivo, blackgrass (Alopecurus myosuroides); conditions: foliage application, 320 g/ha, 3 weeks after application
# In short: as §2
# [18] = tested on: false cleavers; assay: Test Example 5: herbicidal effect by foliage application, plastic box (Table 20, symbol Q); type: in vivo, false cleavers (Galium spurium); conditions: foliage application, 320 g/ha, 3 weeks after application
# In short: as §2
# [19] = tested on: lambsquarters; assay: Test Example 5: herbicidal effect by foliage application, plastic box (Table 20, symbol O); type: in vivo, lambsquarters (Chenopodium album); conditions: foliage application, 320 g/ha, 3 weeks after application
# In short: as §2
# [20] = tested on: barnyard grass; assay: Test Example 4: herbicidal effect by soil treatment (Table 19, symbol H); type: in vivo, barnyard grass (Echinochloa crus-galli); conditions: AAH 320 g/ha
# In short: as §1
# [21] = tested on: rice flat sedge; assay: Test Example 3: herbicidal effect by foliage application, Wagner pot (Table 18, symbol E); type: in vivo, rice flat sedge (Cyperus iria); conditions: 320 g/ha
# In short: as §3
# [22] = tested on: barnyard grass; assay: Test Example 3: herbicidal effect by foliage application, Wagner pot (Table 18, symbol H); type: in vivo, barnyard grass (Echinochloa crus-galli); conditions: 320 g/ha
# In short: as §3
# [23] = tested on: redroot pigweed; assay: Test Example 4: herbicidal effect by soil treatment (Table 19, symbol N); type: in vivo, redroot pigweed (Amaranthus retroflexus); conditions: AAH 320 g/ha
# In short: as §1
# [24] = tested on: barnyard grass; assay: Test Example 5: herbicidal effect by foliage application, plastic box (Table 20, symbol H); type: in vivo, barnyard grass (Echinochloa crus-galli); conditions: foliage application, 320 g/ha, 3 weeks after application
# In short: as §2
# [25] = tested on: Italian ryegrass; assay: Test Example 4: herbicidal effect by soil treatment (Table 19, symbol K); type: in vivo, Italian ryegrass (Lolium multiflorum); conditions: AAH 320 g/ha
# In short: as §1
# [26] = tested on: lambsquarters; assay: Test Example 4: herbicidal effect by soil treatment (Table 19, symbol O); type: in vivo, lambsquarters (Chenopodium album); conditions: AAH 320 g/ha
# In short: as §1
smiles,measurement,setting,value
CCCC(=O)Oc1c(OC)nn(C)c(=O)c1-c1c(-c2ccc3c(c2)OCCO3)sc2ccccc12 [1-199],"M: velvetleaf, herbicidal effect rating",[1],0 (Herbicidal rate of 5% or less (almost no effect))
same,"F: southern crabgrass, herbicidal effect rating",[2],1 (Herbicidal rate of 5% or more and less than 20%)
same,"Q: false cleavers, herbicidal effect rating",[3],0 (Herbicidal rate of 5% or less (almost no effect))
same,"J: blackgrass, herbicidal effect rating",[4],0 (Herbicidal rate of 5% or less (almost no effect))
same,"I: wild oat, herbicidal effect rating",[5],0 (Herbicidal rate of 5% or less (almost no effect))
same,effect on persian speedwell (R),[6],4 (Herbicidal rate of 70% or more and less than 90%)
same,effect on wild oat (I),[7],0 (Herbicidal rate of 5% or less (almost no effect))
same,"herbicidal effect on D (Chinese sprangletop), rating 0-5",[8],0 (Herbicidal rate of 5% or less (almost no effect))
same,effect on southern crabgrass (F),[9],0 (Herbicidal rate of 5% or less (almost no effect))
same,effect on green foxtail (G),[10],0 (Herbicidal rate of 5% or less (almost no effect))
same,effect on Italian ryegrass (K),[11],0 (Herbicidal rate of 5% or less (almost no effect))
same,effect on windgrass (L),[12],0 (Herbicidal rate of 5% or less (almost no effect))
same,effect on velvetleaf (M),[13],0 (Herbicidal rate of 5% or less (almost no effect))
same,"L: windgrass, herbicidal effect rating",[14],0 (Herbicidal rate of 5% or less (almost no effect))
same,"P: chickweed, herbicidal effect rating",[15],4 (Herbicidal rate of 70% or more and less than 90%)
same,"R: persian speedwell, herbicidal effect rating",[16],5 (Herbicidal rate of 90% or more (almost completely withered))
same,effect on blackgrass (J),[17],0 (Herbicidal rate of 5% or less (almost no effect))
same,effect on false cleavers (Q),[18],0 (Herbicidal rate of 5% or less (almost no effect))
same,effect on lambsquarters (O),[19],0 (Herbicidal rate of 5% or less (almost no effect))
same,"H: barnyard grass, herbicidal effect rating",[20],2 (Herbicidal rate of 20% or more and less than 40%)
same,"herbicidal effect on E (rice flat sedge), rating 0-5",[21],5 (Herbicidal rate of 90% or more (almost completely withered))
same,"herbicidal effect on H (barnyard grass), rating 0-5",[22],0 (Herbicidal rate of 5% or less (almost no effect))
same,"N: redroot pigweed, herbicidal effect rating",[23],0 (Herbicidal rate of 5% or less (almost no effect))
same,effect on barnyard grass (H),[24],0 (Herbicidal rate of 5% or less (almost no effect))
same,"K: Italian ryegrass, herbicidal effect rating",[25],0 (Herbicidal rate of 5% or less (almost no effect))
same,"O: lambsquarters, herbicidal effect rating",[26],3 (Herbicidal rate of 40% or more and less than 70%)
